In data set [1] the test system is Enterococcus faecalis. The experiment in a line: Antibacterial activity against Enterococcus faecalis Van BE80-8 by broth microdilution assay. The class given is functional.
Data set [2] has as its system Pseudomonas aeruginosa. The experiment in a line: Antibacterial activity against Pseudomonas aeruginosa ATCC 27853 by broth microdilution assay. Format: functional.
For data set [3], the system named is Pseudomonas aeruginosa. The experiment in a line: Antibacterial activity against Pseudomonas aeruginosa PAO1 HS by broth microdilution assay. Format: functional.
In data set [4] the test system is Staphylococcus aureus. The experiment in a line: Antibacterial activity against Staphylococcus aureus ATCC 29213 by broth microdilution assay. The class given is functional.
Data set [5] has as its system Pseudomonas aeruginosa. The experiment in a line: Antibacterial activity against Pseudomonas aeruginosa K799/WT by broth microdilution assay. The class given is functional.
Data set [6] has as its system Pseudomonas aeruginosa. The experiment in a line: Antibacterial activity against Pseudomonas aeruginosa PAO1 after 18 to 24 hrs by broth microdilution assay. Format: functional.
For data set [7], the system named is Pseudomonas aeruginosa. The experiment in a line: Antibacterial activity against Pseudomonas aeruginosa 8S/H by broth microdilution assay. The class given is functional.
For data set [8], the system named is Enterococcus faecalis. The experiment in a line: Antibacterial activity against Enterococcus faecalis ATCC 29212 by broth microdilution assay. Format: functional.
In data set [9] the test system is Escherichia coli. The experiment in a line: Antibacterial activity against Escherichia coli DH5[alpha] after 18 to 24 hrs by broth microdilution assay. Format: functional.
Data set [10] relates to Escherichia coli. The experiment in a line: Antibacterial activity against Escherichia coli ATCC 25922 by broth microdilution assay. The class given is functional.
The nature of data set [11]: Hemolytic activity in human RBC after 4 hrs. The class given is ADME, cell-based. To be noted: erythrocyte.
The subject of data set [12] is Bacillus subtilis. The experiment in a line: Antibacterial activity against Bacillus subtilis BR151 after 18 to 24 hrs by broth microdilution assay. The class given is functional.
The test system of data set [13] is Staphylococcus aureus. The experiment in a line: Antibacterial activity against methicillin-resistant Staphylococcus aureus 42080 by broth microdilution assay. Format: functional.
For data set [14], the system named is Pseudomonas aeruginosa. The experiment in a line: Antibacterial activity against Pseudomonas aeruginosa K799/61 by broth microdilution assay. The class given is functional.
In data set [15] the test system is Escherichia coli. The experiment in a line: Antibacterial activity against Escherichia coli DC2 by broth microdilution assay. The class given is functional.
In data set [16] the test system is Staphylococcus aureus. The experiment in a line: Antibacterial activity against Staphylococcus aureus 887 by broth microdilution assay. Format: functional.
In data set [17] the test system is Enterococcus faecium. The experiment in a line: Antibacterial activity against Enterococcus faecium ATCC 19434 by broth microdilution assay. The class given is functional.
Data set [18] deals with Escherichia coli. The experiment in a line: Antibacterial activity against Escherichia coli HB101 (PAT 266) by broth microdilution assay. The class given is functional.
Data set [19] concerns Staphylococcus epidermidis. The experiment in a line: Antibacterial activity against Staphylococcus epidermidis ATCC 14990 by broth microdilution assay. The class given is functional.
In data set [20] the test system is Enterococcus faecium. The experiment in a line: Antibacterial activity against Enterococcus faecium Van BE38-10 by broth microdilution assay. The class given is functional.
Data set [21] has as its system Staphylococcus epidermidis. The experiment in a line: Antibacterial activity against Staphylococcus epidermidis J147 by broth microdilution assay. Format: functional.
The test system of data set [22] is Staphylococcus aureus. The experiment in a line: Antibacterial activity against Staphylococcus aureus ATCC 25923 by broth microdilution assay. The class given is functional.

Structures are written as SMILES. Values after ≈ are worked out from the molar mass of the structure shown. Where a SMILES comes first, the peptide text is derived from it. Bridges are numbered along the chain shown (N, C = ends). Roman numbers before positions name the chains, in order. Side-chain parts run from the residue outwards. [ ]: non-standard residue; d: D form. The star is where a group is joined. LeuLys(Leu) = CC(C)C[C@H](N)C(=O)NCCCC[C@H](NC(=O)[C@@H](N)CC(C)C)C(=O)*; X2 = CC[C@H](C)[C@H](N)C(=O)NCCCC[C@H](NC(=O)[C@@H](N)[C@@H](C)CC)C(=O)*; X1 = CC(C)C[C@H](N)C(=O)NC[C@H](NC(=O)[C@@H](N)CC(C)C)C(=O)*; Dap = NC[C@H](N)C(=O)O

In the case of `CC[C@H](C)[C@H](N)C(=O)NCCCC[C@H](NC(=O)[C@@H](N)[C@@H](C)CC)C(=O)N[C@@H](Cc1ccccc1)C(=O)NCCCC[C@H](NC(=O)[C@H](Cc1ccccc1)NC(=O)[C@H](CCCCNC(=O)[C@@H](N)[C@@H](C)CC)NC(=O)[C@@H](N)[C@@H](C)CC)C(=O)N1CCC[C@H]1C(=O)NCCCC[C@H](NC(=O)[C@@H]1CCCN1C(=O)[C@H](CCCCNC(=O)[C@H](Cc1ccccc1)NC(=O)[C@H](CCCCNC(=O)[C@@H](N)[C@@H](C)CC)NC(=O)[C@@H](N)[C@@H](C)CC)NC(=O)[C@H](Cc1ccccc1)NC(=O)[C@H](CCCCNC(=O)[C@@H](N)[C@@H](C)CC)NC(=O)[C@@H](N)[C@@H](C)CC)C(=O)N[C@@H](CCCCN)C(N)=O` (I: H-IK(Ile)FK([Phe-X2])PKK-NH2 / II: H-IK(Ile)FK([Phe-X2])P; amide I:6-II:C), the MIC in data set [1] is above 32 µg/mL; in data set [2] it was above 32 µg/mL; in data set [3], above 32 µg/mL; in [4] it was above 32 µg/mL; in [5] it was above 32 µg/mL; in data set [6] it was 61 µg/mL (≈ 22.3 µM). The MIC was above 32 µg/mL in [7]; above 32 µg/mL in data set [8]; 18 µg/mL (≈ 6.59 µM) in data set [9]; above 32 µg/mL in data set [10]; 2.5 µg/mL (≈ 0.916 µM) in [12]; above 32 µg/mL in [13]. In addition, in data set [14], the MIC is above 32 µg/mL. Also, the MHC in [11] is above 10000 µg/mL.
As for `CC[C@H](C)[C@H](N)C(=O)NCCCC[C@H](NC(=O)[C@@H](N)[C@@H](C)CC)C(=O)N[C@H](C(=O)NCCCC[C@H](NC(=O)[C@@H](NC(=O)[C@H](CCCCNC(=O)[C@@H](N)[C@@H](C)CC)NC(=O)[C@@H](N)[C@@H](C)CC)[C@@H](C)CC)C(=O)N[C@@H](Cc1ccccc1)C(=O)NCCCC[C@H](NC(=O)[C@H](Cc1ccccc1)NC(=O)[C@H](CCCCNC(=O)[C@@H](NC(=O)[C@H](CCCCNC(=O)[C@@H](N)[C@@H](C)CC)NC(=O)[C@@H](N)[C@@H](C)CC)[C@@H](C)CC)NC(=O)[C@@H](NC(=O)[C@H](CCCCNC(=O)[C@@H](N)[C@@H](C)CC)NC(=O)[C@@H](N)[C@@H](C)CC)[C@@H](C)CC)C(=O)N[C@@H](CCCCN)C(N)=O)[C@@H](C)CC` (I: H-IK(Ile)IK([Ile-X2])FKK-NH2 / II: H-IK(Ile)IK([Ile-X2])F; amide I:6-II:C), the MIC in data set [1] is above 32 µg/mL; in data set [15], above 32 µg/mL; in [2] it was above 32 µg/mL; in data set [16], 16 µg/mL (≈ 5.94 µM); in data set [17], 24 µg/mL (≈ 8.91 µM); in [3], above 32 µg/mL. The MIC is above 32 µg/mL in [4]; above 32 µg/mL in data set [5]; above 32 µg/mL in data set [18]; above 100 µg/mL in [6]; above 32 µg/mL in [7]; above 32 µg/mL in data set [8]. The MIC was 79 µg/mL (≈ 29.3 µM) in [9]; 32 µg/mL (≈ 11.9 µM) in data set [19]; 8 µg/mL (≈ 2.97 µM) in data set [20]; above 32 µg/mL in [10]; above 32 µg/mL in [21]; above 32 µg/mL in data set [22]. The MIC in [12] was 4.4 µg/mL (≈ 1.63 µM); in data set [13], above 32 µg/mL; in data set [14], above 32 µg/mL. For the same compound, the MHC in [11] was 20 µg/mL.
Take `CC(C)C[C@H](N)C(=O)NCCCC[C@H](NC(=O)[C@@H](N)CC(C)C)C(=O)N[C@@H](CCC(N)=O)C(=O)NCCCC[C@H](NC(=O)[C@H](CCC(N)=O)NC(=O)[C@H](CCCCNC(=O)[C@@H](N)CC(C)C)NC(=O)[C@@H](N)CC(C)C)C(=O)N[C@@H](Cc1ccccc1)C(=O)NCCCC[C@H](NC(=O)[C@H](Cc1ccccc1)NC(=O)[C@H](CCCCNC(=O)[C@H](CCC(N)=O)NC(=O)[C@H](CCCCNC(=O)[C@@H](N)CC(C)C)NC(=O)[C@@H](N)CC(C)C)NC(=O)[C@H](CCC(N)=O)NC(=O)[C@H](CCCCNC(=O)[C@@H](N)CC(C)C)NC(=O)[C@@H](N)CC(C)C)C(=O)N[C@@H](CCCCN)C(N)=O` (I: H-LK(Leu)QK([Gln-LeuLys(Leu)])FKK-NH2 / II: H-LK(Leu)QK([Gln-LeuLys(Leu)])F; amide I:6-II:C): the MIC in data set [1] was above 32 µg/mL; in data set [2], above 32 µg/mL; in data set [3], above 32 µg/mL; in data set [4] it was above 32 µg/mL; in [5] it was above 32 µg/mL; in data set [6], above 100 µg/mL. The MIC was above 32 µg/mL in [7]; above 32 µg/mL in [8]; above 100 µg/mL in data set [9]; above 32 µg/mL in data set [10]; above 100 µg/mL in data set [12]; above 32 µg/mL in [13]. The compound further showed an MIC in data set [14] above 32 µg/mL. The compound also came in with an MHC in [11] of 250 µg/mL.
Turning to `CC(C)C[C@H](N)C(=O)NC[C@H](NC(=O)[C@@H](N)CC(C)C)C(=O)N[C@@H](Cc1ccccc1)C(=O)NC[C@H](NC(=O)[C@H](Cc1ccccc1)NC(=O)[C@H](CNC(=O)[C@@H](N)CC(C)C)NC(=O)[C@@H](N)CC(C)C)C(=O)N1CCC[C@H]1C(=O)NC[C@H](NC(=O)[C@@H]1CCCN1C(=O)[C@H](CNC(=O)[C@H](Cc1ccccc1)NC(=O)[C@H](CNC(=O)[C@@H](N)CC(C)C)NC(=O)[C@@H](N)CC(C)C)NC(=O)[C@H](Cc1ccccc1)NC(=O)[C@H](CNC(=O)[C@@H](N)CC(C)C)NC(=O)[C@@H](N)CC(C)C)C(=O)N[C@@H](CCCCN)C(N)=O` (I: H-L[Dap](Leu)F[Dap]([Phe-X1])P[Dap]K-NH2 / II: H-L[Dap](Leu)F[Dap]([Phe-X1])P; amide I:6-II:C), the MIC was above 32 µg/mL in [1]; above 32 µg/mL in [2]; above 32 µg/mL in data set [3]; above 32 µg/mL in [4]; above 32 µg/mL in data set [5]; 20 µg/mL (≈ 8.21 µM) in data set [6]. Also, the MIC was above 32 µg/mL in [7]; above 32 µg/mL in [8]; 15 µg/mL (≈ 6.16 µM) in data set [9]; above 32 µg/mL in data set [10]; 3.1 µg/mL (≈ 1.27 µM) in data set [12]; above 32 µg/mL in [13]. Besides, the MIC in data set [14] was above 32 µg/mL. The MHC in [11] is above 2000 µg/mL.
Take `CC1(C)S[C@@H]2[C@H](NC(=O)[C@H](N)c3ccccc3)C(=O)N2[C@H]1C(=O)O` [AMPICILLIN]: the MIC in data set [15] was 1 µg/mL (≈ 2.86 µM); in data set [16] it was above 32 µg/mL; in data set [17], 4 µg/mL (≈ 11.4 µM); in [18], above 32 µg/mL; in data set [19] it was 1 µg/mL (≈ 2.86 µM); in data set [20], above 32 µg/mL. For the same compound, the MIC in data set [21] was 1.5 µg/mL (≈ 4.29 µM); in data set [22], 0.13 µg/mL (≈ 0.372 µM).

These data come from ChEMBL document CHEMBL3217499, “Membrane disrupting antimicrobial peptide dendrimers with multiple amino termini” (Medchemcomm, 2012).
